Here are results for two compounds from ChEMBL document CHEMBL1151047, “NS 257 (1,2,3,6,7,8-hexahydro-3(hydroxyimino)-N,N,7-trimethyl-2-oxobenzo[2,1-b:3,4-c']dipyrrole-5-sulfonamide) is a potent, systemically active ampa receptor antagonist” (Bioorg Med Chem Lett, 1994).

A short description of test [1]: Inhibitory activity against lactate dehydrogenase release was determined. The test is classed as functional.
For test [2], the target named is Glutamate receptor ionotropic, AMPA (Rattus norvegicus, UniProt P19490+P19491+P19492+P19493). The experiment in a line: Binding affinity towards AMPA receptor to rat cortical membrane using [3H]AMPA as radioligand.
Test [3] can be described thus: Compound was tested for neuronal damage produced by application of 500 uM kainate. In kind it is functional.
Test [4] concerns the target Glutamate receptor ionotropic, NMDA 1 (Rattus norvegicus, UniProt P35439). The test is described as follows: Binding affinity towards glycine binding site of NMDA receptor to rat cortical membrane using [3H]glycine as radioligand.
A further test concerns the target Glutamate NMDA receptor. The experiment in a line: Binding affinity towards glutamate binding site of NMDA receptor to rat cortical membrane using NMDA sensitive [3H]-glutamate as radioligand.
For test [5], the target named is Glutamate receptor ionotropic, kainate. The experiment in a line: Binding affinity towards kainate receptor to rat cortical membrane using [3H]kainate as radioligand.
For the next test, the system named is Mus musculus. The test is described as follows: Ability to block the AMPA-induced convulsant effects in mice upon intracerebroventricular injection. As to conditions: central. The test is classed as functional.

As for `CN1Cc2c(S(=O)(=O)N(C)C)cc3c(N=O)c(O)[nH]c3c2C1`, the IC50 in test [1] was 9 µM; in test [2], 0.7 µM; in test [3], 10 µM; in test [4] it was greater than 100 µM; on Glutamate NMDA receptor, 44 µM; in test [5], 13 µM. The compound also yielded an ED50 in the test with Mus musculus of 10 mg/kg.
In the test with Mus musculus, `NS(=O)(=O)c1cccc2c1c([N+](=O)[O-])cc1nc(O)c(O)nc12` [NBQX] gave an ED50 of 10 mg/kg.
